This is an account of results in patent US11744841B2, “Use of trezastilbenoside in manufacture of product for treating and/or preventing disease of respiratory system” (KPC PHARMACEUTICALS, INC., priority 2019, dated 2023).

Data set [1] relates to excretion of phenol red from the mouse trachea. Kind of data set: Excretion amount of phenol red from the mouse trachea (expectorant effects). The note with it: trachea wash in 2 mL 5% NaHCO3, absorbance at 546 nm, n = 10. The format is in vivo, mice. The method, then:
2.3 Effects on the Excretion Amount of Phenol Red from the Mouse Trachea (Expectorant Effects)
40 mice were taken and randomly divided into 4 groups as described in 2.1. The positive control group received ambroxol hydrochloride tablets at 20 mg/kg. After the mice were acclimatized for 3 days, they were administered intragastrically once a day continuously for 7 days. The administration volume was 20 mL/kg, and 30 min after the last administration, each mouse was intraperitoneally injected with 5% phenol red solution at 0.2 mL/20 g, sacrificed after 30 min, fixed supine, neck straightened, surrounding connective tissue stripped to expose the trachea, and dissected to separate out a section of trachea that was from below the thyroid cartilage to the bifurcation of the trachea. Each trachea section was put into a test tube pre-filled with 2 mL of 5% NaHCO3 solution, ultrasonically washed for 15 min to release the tracheal phenol red out from the trachea completely, and centrifuged at 1000 r/min for 15 min to obtain a supernatant. The absorbance values of the supernatant at 546 nm were measured by an enzyme reader, and converted into the phenol red content by being compared with standard curves of phenol red.
(§1) Experimental data were analyzed using SPSS17.0 software, and expressed as means±standard deviations (x±SD). When the homogeneity of variance was complied, LSD test was used to make comparison between groups; and when the homogeneity of variance was not complied, Dunnett's T3 test was used to make comparison between groups. A P-value less than 0.05 means a statistical significance, and a P-value less than 0.01 means a significant statistical significance.

Data set [2] has as its system allergic asthma in guinea pigs. Description: Allergic asthma in guinea pigs (egg protein sensitisation and spray). It counts as in vivo. The note with it: 1% egg protein spray, capped at 6 min. As to the method: 2.4 Effects on the Allergic Asthma in Guinea Pigs (Effects for Relieving Asthma)
40 guinea pigs, male and female each in half, having body weight of 250-280 g, were randomly divided into 4 groups as described in 2.1. The positive control group received aminophylline tablets at 100 mg/kg. After the guinea pigs were acclimatized for 3 days, they received 10% fresh egg protein solution at 10 mL/kg through an intraperitoneal injection. From the 15th day, it began to administer intragastrically to each group at 10 mL/kg. The negative control group received equal volume of 0.5% CMC-Na once per day continuously for 7 days. From the 17th day, it began to let the guinea pigs inhale 1% egg protein solution, by spraying through an asthma-inducing, for 15 min to elicit at 1-day intervals totally for 3 times. After the last irritation, the asthma latency in the guinea pigs, that is, the time from the beginning of spray to asthma attacks (cough, dyspnea, restlessness, convulsions, falling down or death), was recorded. For the guinea pigs which had not appeared asthma attack after 6 min, their latency was taken as 6 min.
as §1

For data set [3], the system named is cough in guinea pigs induced by citric acid spray. Description: Cough in guinea pigs induced by citric acid spray (antitussive effects). The format is in vivo. The note with it: n = 10; for Number of coughs per 5 min: 17.5% citric acid spray; for Latency: cough latency, 17.5% citric acid spray 1 min, latency capped at 5 min. The method, then: 2.2 Effects on the Cough in Guinea Pigs Induced by Citric Acid Spray (Antitussive Effects)
Healthy and sensitive guinea pigs (a pre-selection was carried out one day before the experiments, to exclude the guinea pigs which coughed less than 10 times during the five-minute period), having body weight of 250-280 g, male and female each in half were taken, and randomly divided into groups as described in 2.1. After the guinea pigs were acclimatized for 3 days, they were administered intragastrically once a day continuously for 5 days, and at the fifth day 1 hour after the administration, the guinea pigs were placed inside a 3 L sealed glass bell jar where 17.5% citric acid was sprayed into at constant pressure for 1 minute by an ultrasonic nebulizer. The cough latency and the number of coughs of the guinea pigs during the 5-minute period were recorded though observation. For guinea pigs whose latency exceeded 5 min, it was recorded as 5 min.
as §1

Data set [4] has as its system cough response of mice induced by concentrated ammonia. Description: Cough response of mice induced by concentrated ammonia (antitussive effects). The format is in vivo. To be noted: n = 10; for Number of coughs per 2 min: 25% ammonia spray; for Latency: cough latency, 25% ammonia spray 15 s, 1 h after last dose. As to the method:
2.1 Effects on the Cough Response of Mice Induced by Concentrated Ammonia (Antitussive Effects)
40 mice were taken and randomly divided into four groups, namely a negative control group (0.5% of CMC-Na: prepared before tests by weighting 5 g of CMC-Na into a beaker, adding 800 mL pure water thereto, stirring, heating, boiling, and cooling down, then using a measuring cylinder to adjust the volume to 1000 mL, to obtain the transparent, viscous liquid with a concentration of 0.5% for the preparation of test samples and solvent control. Such liquid prepared once and can be used for 5-7 days); a positive control group of codeine phosphate tablets at 60 mg/kg; Trezastilbenoside high dose (300 mg/kg) group; and Trezastilbenoside low dose (150 mg/kg) group. For each administration group, 0.5% CMC-Na was used for dissolving and diluting to a corresponding concentration. After the mice were accilimatized for 3 days, they were administered intragastrically once a day continuously for 7 days. The administration volume was 20 mL/kg, and 1 h after the last administration, the mice were placed one by one into a closed and dry container where the mist of 25% of concentrated ammonia was introduced into by spraying at constant pressure for 15 seconds to induce cough, then the cough latency and the number of coughs in mice during the 2-minute period were recorded thought observation.
as §1

In data set [5] the test system is ears swelling of mice induced by xylene. Description: Ears swelling of mice induced by xylene (anti-inflammatory effects). The format is in vivo. To be noted: for Swelling degree: xylene 20 μL on right ear, 30 min, weight difference of 6 mm ear pieces. The method, then:
2.5 Effects on Ears Swelling of Mice Induced by Xylene (Anti-Inflammatory Effects)
40 mice were taken and randomly divided into 4 groups of 10 mice each as described in 2.1, in which intragastric administration was conducted at 10 mL/kg, the positive control group received dexamethasone acetate tablets at 5 mg/kg, and the negative control group received equal volume of 0.5% CMC-Na, once per day continuously for 7 days. At the night before the experiments, the mice were fasted but had access to water for 12 h. At the 7th day, 30 min after the administration, the mice were evenly smeared with the inflammatory agent xylene (20 μL for each mouse) at the front and back sides of right ears to cause inflammation, and killed by cervical dislocation after 30 min, with their both ears cut along the baseline of the auricle. The ear pieces of the same part of the both ears were punched out with a hole punch of 6 mm diameter, and weighted by an analytical balance. The difference between the weights of the two ears was the swelling degree (mg), and the swelling inhibition rate (%) was calculated. Swelling inhibition rate=(Average swelling degree of the control group−Average swelling degree of the administration group)/Average swelling degree of the control group 2.6 Statistical Methods:
as §1

The conditions of data set [6]: safety researches, background statement; cited from earlier work.
For data set [7] the following is noted: safety researches, background statement; cited from earlier work. This is another data set of the same source.
Setting [8] is: 60 mg/kg intragastric once a day for 5 days.
Where [9] appears, read: 60 mg/kg intragastric once a day for 7 days.
Setting [10] is: 150 mg/kg intragastric once a day for 5 days.
[11] abbreviates: 300 mg/kg intragastric once a day for 5 days.
[12] abbreviates: 150 mg/kg intragastric once a day for 7 days.
[13] abbreviates: 300 mg/kg intragastric once a day for 7 days.
Setting [14] is: 150 mg/kg intragastric once per day for 7 days.
The mark [15] stands for this setting: 300 mg/kg intragastric once per day for 7 days.

As a reminder, the inhibition is how much of the control response was suppressed.

Structures can show the parent of a compound that is named as a salt.

The compound `Nc1c(Br)cc(Br)cc1CN[C@H]1CC[C@H](O)CC1` [Ambroxol hydrochloride tablet, Ambroxol hydrochloride, reference compound] registered a Phenol red concentration in data set [1] (ambroxol hydrochloride 20 mg/kg (positive control) intragastric once a day for 7 days) of 4.23 ± 1.34 µg/mL.

Turning to `Cn1c(=O)c2[nH]cnc2n(C)c1=O` [Aminophylline tablet, Aminophylline, reference compound], the “Latency” value in data set [2] (100 mg/kg intragastric once per day for 7 days) is recorded as 94.23 ± 31.55 s.

For the compound `COc1ccc2c3c1O[C@H]1[C@@H](O)C=C[C@H]4[C@@H](C2)N(C)CC[C@@]341` [Codeine phosphate tablets, Codeine phosphate, reference compound], in data set [3] (setting [8]), the “Number of coughs per 5 min” value came to 7.83 ± 3.83 and the “Latency” value amounted to 130.48 ± 59.34 s. Besides, in data set [4] (setting [9]), the “Number of coughs per 2 min” value worked out at 15.13 ± 7.83 and the “Latency” value was determined as 56.23 ± 16.46 s.

In the case of `CC(=O)OCC(=O)[C@@]1(O)[C@H](C)C[C@H]2[C@@H]3CCC4=CC(=O)C=C[C@]4(C)[C@@]3(F)[C@@H](O)C[C@@]21C` [Dexamethasone acetate tablet, Dexamethasone acetate, reference compound], in data set [5] (5 mg/kg intragastric once per day for 7 days), the “Swelling degree” value was determined as 1.24 ± 0.67 mg. Besides, the inhibition at 5 mg/kg in data set [5] (Mus musculus, po, 168 h, 5 mg/kg intragastric once per day for 7 days, relative to average swelling degree of control group, read-out: Swelling inhibition rate (%)) came out at 65.9%.

Turning to `OC[C@H]1O[C@@H](Oc2cc(/C=C/c3cc(O)cc(O)c3)ccc2O)[C@H](O)[C@@H](O)[C@@H]1O` [Trezastilbenoside], the “Number of coughs per 5 min” value was found to be 13.88 ± 5.25 in data set [3] (setting [10]) and 9.63 ± 3.20 in data set [3] (setting [11]). Further, the “Latency” value was 104.35 ± 45.23 s in data set [3] (setting [10]); 116.78 ± 53.96 s in data set [3] (setting [11]); 41.23 ± 13.67 s in data set [4] (setting [12]); 48.56 ± 16.53 s in data set [4] (setting [13]); 69.28 ± 21.20 s in data set [2] (setting [14]); 83.68 ± 36.13 s in data set [2] (setting [15]). Moreover, in data set [6], the “Chromosome aberrations or mutagenesis in the genetic test” value is given as “no chromosome aberrations or mutagenesis were found”. In data set [7], the “Toxic side reactions and death in acute toxicity tests” value is “no toxic side reactions and death occurred”. Also, the “Number of coughs per 2 min” value in data set [4] (setting [12]) was found to be 25.88 ± 9.25; in data set [4] (setting [13]), 19.63 ± 10.27. The Phenol red concentration in data set [1] (setting [12]) stood at 3.28 ± 1.20 µg/mL; in data set [1] (setting [13]), 3.88 ± 1.43 µg/mL. Moreover, the “Swelling degree” value in data set [5] (setting [14]) is given as 3.12 ± 2.52 mg; in data set [5] (setting [15]), 2.21 ± 1.45 mg. For the same compound, in data set [5] (Mus musculus, po, 168 h, 150 mg/kg intragastric once per day for 7 days, relative to average swelling degree of control group, read-out: Swelling inhibition rate (%)), the inhibition at 150 mg/kg stood at 14.3%. For the same compound, in data set [5] (Mus musculus, po, 168 h, 300 mg/kg intragastric once per day for 7 days, relative to average swelling degree of control group, read-out: Swelling inhibition rate (%)), the inhibition at 300 mg/kg is 39.3%.
